Reference: article PMC10636026, “Coordinated regulation of the entry and exit steps of aromatic amino acid biosynthesis supports the dual lignin pathway in grasses” (Nature Communications, 2023)
Values belong to the compound of their own block, whether it stands above or below them.

How the values were obtained:
Type in all cases: biochemical
[1] = target: T1, BdDHS2 (3-deoxy-D-arabino-heptulosonate 7-phosphate synthase) (Brachypodium distachyon, UniProt I1I809); assay: recombinant purified enzyme, DHS activity (PEP consumption at […] nm); details: read-out: IC50 / (μM Agn)
T1 construct: gene LOC100821423; without the predicted plastid transit peptide
T1 sequence (I1I809 51-503): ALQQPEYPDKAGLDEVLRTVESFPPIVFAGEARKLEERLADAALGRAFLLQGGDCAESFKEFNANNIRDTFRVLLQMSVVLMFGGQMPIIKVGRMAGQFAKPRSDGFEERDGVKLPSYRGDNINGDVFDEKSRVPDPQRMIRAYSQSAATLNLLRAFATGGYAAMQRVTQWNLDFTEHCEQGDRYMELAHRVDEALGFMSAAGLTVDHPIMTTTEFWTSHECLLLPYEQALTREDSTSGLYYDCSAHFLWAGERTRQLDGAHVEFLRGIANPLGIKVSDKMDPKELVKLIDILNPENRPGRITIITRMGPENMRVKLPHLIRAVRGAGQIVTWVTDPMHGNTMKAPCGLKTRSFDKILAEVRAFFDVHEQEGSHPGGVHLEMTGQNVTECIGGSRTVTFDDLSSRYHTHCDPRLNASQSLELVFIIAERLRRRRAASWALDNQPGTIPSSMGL

[2] = target: T2, BdTyrAnc (non-canonical arogenate dehydrogenase) (Brachypodium distachyon, UniProt I1GYB3); assay: Michaelis-Menten kinetics of recombinant purified enzyme (Km)
T2 construct: gene LOC100829970; without the predicted plastid transit peptide, poly-histidine tag
T2 sequence (I1GYB3 51-361): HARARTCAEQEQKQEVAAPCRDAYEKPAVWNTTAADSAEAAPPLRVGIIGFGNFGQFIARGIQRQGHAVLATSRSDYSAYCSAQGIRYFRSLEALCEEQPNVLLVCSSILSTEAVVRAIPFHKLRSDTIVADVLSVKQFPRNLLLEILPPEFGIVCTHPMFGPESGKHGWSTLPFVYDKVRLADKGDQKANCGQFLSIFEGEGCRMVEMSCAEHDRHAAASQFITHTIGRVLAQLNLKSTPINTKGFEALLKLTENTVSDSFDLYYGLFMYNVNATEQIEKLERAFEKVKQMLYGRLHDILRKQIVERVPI

[3] = target: T3, BdDHS1a (3-deoxy-D-arabino-heptulosonate 7-phosphate synthase) (Brachypodium distachyon, UniProt I1GSB3); assay: recombinant purified enzyme, DHS activity (PEP consumption at […] nm); details: read-out: IC50 / (μM Agn)
T3 construct: gene LOC100823133; without the predicted plastid transit peptide
T3 sequence (I1GSB3 46-537): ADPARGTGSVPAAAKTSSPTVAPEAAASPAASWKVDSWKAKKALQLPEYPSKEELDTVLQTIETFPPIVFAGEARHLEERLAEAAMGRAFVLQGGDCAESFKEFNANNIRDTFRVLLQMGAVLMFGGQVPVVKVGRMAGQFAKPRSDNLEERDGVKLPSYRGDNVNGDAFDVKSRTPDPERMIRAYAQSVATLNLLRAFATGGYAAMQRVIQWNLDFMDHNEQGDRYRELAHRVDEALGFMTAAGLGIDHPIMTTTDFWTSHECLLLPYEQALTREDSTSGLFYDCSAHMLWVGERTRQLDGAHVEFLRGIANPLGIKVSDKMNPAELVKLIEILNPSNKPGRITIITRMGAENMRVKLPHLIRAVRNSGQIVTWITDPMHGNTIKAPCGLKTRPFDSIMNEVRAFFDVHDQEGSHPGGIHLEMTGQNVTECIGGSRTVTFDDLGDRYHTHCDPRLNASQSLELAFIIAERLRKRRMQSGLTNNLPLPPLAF

[4] = target: T1, BdDHS2 (3-deoxy-D-arabino-heptulosonate 7-phosphate synthase); assay: recombinant purified enzyme, DHS activity assay; details: read-out: IC50 / (μM Trp)
[5] = target: T2, BdTyrAnc (non-canonical arogenate dehydrogenase); assay: recombinant purified enzyme, arogenate dehydrogenase assay (NADPH at […] nm); Ki calculated from IC50 and Km; details: read-out: Ki / (μM tyrosine)
[6] = target: T4, BdTyrA2 (arogenate dehydrogenase) (Brachypodium distachyon, UniProt I1GWX1); assay: as above; details: read-out: Ki / (μM tyrosine)
T4 construct: gene LOC100833753; without the predicted plastid transit peptide, poly-histidine tag
T4 sequence (I1GWX1 56-365): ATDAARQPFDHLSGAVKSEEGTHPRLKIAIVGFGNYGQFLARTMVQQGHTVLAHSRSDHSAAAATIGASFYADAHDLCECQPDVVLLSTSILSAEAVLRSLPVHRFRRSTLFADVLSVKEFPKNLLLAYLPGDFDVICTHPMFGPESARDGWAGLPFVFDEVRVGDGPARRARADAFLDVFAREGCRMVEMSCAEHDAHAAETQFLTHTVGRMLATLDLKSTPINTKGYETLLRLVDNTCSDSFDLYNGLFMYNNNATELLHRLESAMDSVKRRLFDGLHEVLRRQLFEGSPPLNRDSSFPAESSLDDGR

IC50 [1]: 91 ± 11 µM
Km [2]: 0.13 ± 0.04 mM
IC50 [3]: 285 ± 24 µM
SMILES: N[C@@H](C[C@]1(C(=O)O)C=C[C@@H](O)C=C1)C(=O)O [arogenate]

IC50 [4]: 120 ± 4 µM
SMILES: N[C@@H](Cc1c[nH]c2ccccc12)C(=O)O [tryptophan]

SMILES: N[C@@H](Cc1ccc(O)cc1)C(=O)O [tyrosine]
Ki [5]: 64 ± 25 µM
Ki [6]: 8 ± 2 µM
